{
  "source": "patent US20260226114A1",
  "about": "“PEPTIDE FOR THE TREATMENT OF DISEASES ASSOCIATED WITH APOLIPOPROTEIN AI OR TRANSTHYRETIN INVOLVEMENT” (CENTRO DE INGENIERÍA GENÉTICA Y BIOTECNOLOGÍA, priority 2022, published 2026)",
  "key": {"patients with RA": {"system": "patients with RA", "conditions": "cited from earlier work"}, "[1]": {"system": "patients with type II diabetes", "experiment": "Treatment of patients with decompensated type II diabetes", "format": "in vivo, human", "conditions": "five patients, 1 mg every 12 hours intravenously for eight days", "procedure": "It is exemplified with ten patients who had diabetic decompensation and reached a state of severity, that let them to be treated in the ICU of the hospital “Luis Díaz Soto” in Havana. Five of these patients were treated with a pharmaceutical composition comprising the peptide identified as SEQ ID NO: 1, so that a peptide dose of 1 mg every 12 hours was administered intravenously for eight days. In addition, they received the standard therapy needed for these cases."}, "[2]": {"system": "patients with ischemic heart disease", "experiment": "Treatment of patients with ischemic heart disease and high blood pressure", "format": "in vivo, human", "conditions": "six patients, 1 mg every 12 hours intravenously for seven days", "procedure": "It is exemplified with the results of six patients. They presented ischemic heart disease, associated with high blood pressure, which produced a state of severity. They were treated in the Intermediate Care Unit (IMCU) of the “Luis Diaz Soto” hospital in Havana. These patients were treated with a pharmaceutical composition comprising the peptide identified as SEQ ID NO: 1, so that a peptide dose of 1 mg every 12 hours was administered intravenously for seven days. In addition, they received the standard therapy needed for these cases."}},
  "note": "No end group written: not given here.",
  "data": [
    {"sequence": "SIDLKDKYKNIGAKLVQLVANNTNEEA [SEQ ID NO: 1]", "values": [
      {"measurement": "safety", "setting": "patients with RA", "result": "proved to be safe"},
      {"measurement": "side effects (clinical and imaging evaluation, blood biochemistry, differential blood count)", "setting": "[1]", "result": "No side effects were observed"},
      {"measurement": "side effects (clinical and imaging evaluation, blood biochemistry, differential blood count)", "setting": "[2]", "result": "No side effects were observed"}
    ]}
  ]
}
